Read-outs that look alike come from different tables or passages of the source. Starred links: 1 amine or outer side, 2 acyl side, 3 side chain; linkers in the order of their positions; H or OH if unused. Non-standard residues stand in square brackets, D forms with d. Groups on a side chain read outwards from the residue. *: point of attachment. C18 diacid = O=C(O)CCCCCCCCCCCCCCCCC(=O)*; αMePhe(2-F) = C[C@](N)(Cc1ccccc1F)C(=O)O; γGlu = O=C(O)[C@H](CCC(=O)[*:2])N[*:1]; αMe4Pal = C[C@](N)(Cc1ccncc1)C(=O)O; αMeY = C[C@](N)(Cc1ccc(O)cc1)C(=O)O; 4Pal = N[C@@H](Cc1ccncc1)C(=O)O; αMeL = CC(C)C[C@](C)(N)C(=O)O; αMeS = C[C@](N)(CO)C(=O)O; Orn = NCCC[C@H](N)C(=O)O; AEEA = NCCOCCOCC(=O)O; Aib = CC(C)(N)C(=O)O
Tests used:
Format in all cases: cell-based
hGLP-1R [1] = molecular target: T1, hGLP-1R (Homo sapiens, UniProt P43220); test: Functional cAMP activation in the presence of 0.1% casein (no HSA); settings: read-out: Relative cAMP EC50, hGLP-1R;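 also: intracellular cAMP rise after 30 min at 37 °C read by HTRF, normalized between buffer only (0%) and maximal control ligand (100%), four-parameter variable-slope fit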
T1 sequence (P43220 24-463): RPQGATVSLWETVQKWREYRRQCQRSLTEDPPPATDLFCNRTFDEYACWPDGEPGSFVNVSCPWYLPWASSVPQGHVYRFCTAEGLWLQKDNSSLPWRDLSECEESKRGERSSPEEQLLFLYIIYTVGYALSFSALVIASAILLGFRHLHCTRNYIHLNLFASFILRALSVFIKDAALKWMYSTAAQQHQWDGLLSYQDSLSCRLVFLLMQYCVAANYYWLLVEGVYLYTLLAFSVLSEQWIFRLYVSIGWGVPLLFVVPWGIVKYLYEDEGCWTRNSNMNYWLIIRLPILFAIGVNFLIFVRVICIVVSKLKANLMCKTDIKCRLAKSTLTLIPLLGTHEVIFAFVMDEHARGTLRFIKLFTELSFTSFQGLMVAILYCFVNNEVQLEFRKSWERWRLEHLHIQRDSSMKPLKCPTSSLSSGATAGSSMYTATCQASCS

hGIPR [2] = molecular target: T2, hGIPR (Homo sapiens, UniProt P48546); test: Functional cAMP activity in the presence of 1% HSA; settings: read-out: cAMP Rel EC50, hGIPR
T2 sequence (P48546 22-466): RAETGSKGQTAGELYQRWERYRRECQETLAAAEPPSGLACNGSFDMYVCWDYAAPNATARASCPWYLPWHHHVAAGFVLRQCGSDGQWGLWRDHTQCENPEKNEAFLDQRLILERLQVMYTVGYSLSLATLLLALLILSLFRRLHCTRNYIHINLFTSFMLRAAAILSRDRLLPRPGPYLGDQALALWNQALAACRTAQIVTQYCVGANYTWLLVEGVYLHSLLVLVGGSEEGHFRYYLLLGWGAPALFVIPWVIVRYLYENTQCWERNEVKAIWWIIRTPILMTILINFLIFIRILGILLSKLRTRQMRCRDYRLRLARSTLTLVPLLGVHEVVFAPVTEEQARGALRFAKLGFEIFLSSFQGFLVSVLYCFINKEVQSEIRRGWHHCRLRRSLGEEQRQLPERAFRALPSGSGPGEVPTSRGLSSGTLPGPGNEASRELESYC

hGIPR [3] = molecular target: T2, hGIPR; test: Functional cAMP activation in the presence of 0.1% casein (no HSA); settings: read-out: Relative cAMP EC50, hGIPR;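 also: intracellular cAMP rise after 30 min at 37 °C read by HTRF against a standard curve, scaled between buffer alone (0%) and top control ligand concentration (100%), four-parameter fit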
human GcgR = human GcgR (Homo sapiens, UniProt P47871); test: Functional cAMP activity in the presence of 1% HSA; settings: read-out: cAMP Rel EC50, hGcgR
Sequence of human GcgR (P47871 26-477): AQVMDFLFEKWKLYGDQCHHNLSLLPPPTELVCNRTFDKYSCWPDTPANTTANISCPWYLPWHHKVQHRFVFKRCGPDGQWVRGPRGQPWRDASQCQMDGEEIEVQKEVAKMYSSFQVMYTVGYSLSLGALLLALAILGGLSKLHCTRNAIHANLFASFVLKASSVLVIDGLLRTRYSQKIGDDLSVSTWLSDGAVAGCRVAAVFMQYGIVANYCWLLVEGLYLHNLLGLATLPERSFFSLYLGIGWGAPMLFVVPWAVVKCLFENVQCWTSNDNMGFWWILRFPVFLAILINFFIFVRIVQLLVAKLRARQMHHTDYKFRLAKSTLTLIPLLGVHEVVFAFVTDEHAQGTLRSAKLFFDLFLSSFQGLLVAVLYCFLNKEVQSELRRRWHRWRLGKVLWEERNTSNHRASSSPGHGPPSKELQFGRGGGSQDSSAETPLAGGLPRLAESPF

hGLP-1R [4] = molecular target: T1, hGLP-1R; test: Functional cAMP activity in the presence of 1% HSA; settings: read-out: cAMP Rel EC50, hGLP-1R
hGcgR = hGcgR (Homo sapiens, UniProt P47871); test: Functional cAMP activation in the presence of 0.1% casein (no HSA); settings: read-out: Relative cAMP EC50, hGcgR;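 also: intracellular cAMP rise after 30 min at 37 °C, read by HTRF against a cAMP standard curve, scaled from buffer only (0%) to maximal control ligand response (100%)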
Sequence of hGcgR (P47871 26-477): as above

[5] = in the presence of 0.1% casein (no HSA), geometric mean

Substance | EC50 (hGLP-1R [1]) [nM] | EC50 (hGIPR [2]) [nM] | EC50 (hGIPR [3]) [nM] | EC50 (human GcgR) [nM] | EC50 (hGLP-1R [4]) [nM] | EC50 (hGcgR) [nM] | EC50 (hGLP-1R [1]; [5]) [nM] | EC50 (hGIPR [3]; [5]) [nM] | EC50 (hGcgR; [5]) [nM]
H-Y[Aib]QGT[αMePhe(2-F)]TSD[4Pal][αMeS]I[αMeL]LD[Orn]K([AEEA-γGlu-C18 diacid])AQ[αMe4Pal]EFI[dE][αMeY]LVEGGPSSGEPPPSGTGE-NH2 [Example 734] | 0.417 | 1.3 | 0.0132 | 230 | 38.1 | 2.08 | – | – | –
H-Y[Aib]QGT[αMePhe(2-F)]TSD[4Pal][αMeS]I[αMeL]LD[Orn]K([AEEA-γGlu-C18 diacid])AQ[αMe4Pal]EFI[dE][αMeY]LVEGGPSSGEPPPTGE-NH2 [Example 1153] | – | 1.39 | – | 215 | 52.7 | – | 0.33 | 0.0109 | 2.69
H-Y[Aib]QGT[αMePhe(2-F)]TSD[4Pal][αMeS]I[αMeL]LD[Orn]K([AEEA-γGlu-γGlu-C18 diacid])AQ[Aib][Orn]FIEYLIEAGPSSGEPPPEEG-NH2 [Example 485] | 0.277 | 0.869 | 0.0194 | 298 | 11.8 | 4.29 | – | – | –
H-Y[Aib]QGT[αMePhe(2-F)]TSD[4Pal][αMeS]I[αMeL]LD[Orn]K([AEEA-γGlu-γGlu-C18 diacid])AQ[αMe4Pal]EFI[dE][αMeY]LIEGGPSSGAPPPSGE-NH2 [Example 1176] | – | 0.462 | – | 229 | 43.8 | – | 0.344 | 0.00717 | 1.8
H-Y[Aib]QGT[αMePhe(2-F)]TSD[4Pal][αMeS]I[αMeL]LD[Orn]K([AEEA-γGlu-γGlu-C18 diacid])AQ[αMe4Pal]EFI[dE][αMeY]LIEGGPSSGAPPPSGGGE-NH2 [Example 1180] | – | 0.341 | – | 205 | 35.6 | – | 0.445 | 0.00602 | 3.16
H-Y[Aib]QGT[αMePhe(2-F)]TSD[4Pal][αMeS]I[αMeL]LD[Orn]K([AEEA-γGlu-γGlu-C18 diacid])AQ[αMe4Pal]EFI[dE][αMeY]LIEGGPSSGAPPPSGSE-NH2 [Example 1178] | – | 0.544 | – | 270 | 39 | – | 0.437 | 0.00913 | 3.08
H-Y[Aib]QGT[αMePhe(2-F)]TSD[4Pal][αMeS]I[αMeL]LD[Orn]K([AEEA-γGlu-γGlu-C18 diacid])AQ[αMe4Pal]EFI[dE][αMeY]LIEGGPSSGEPPPSGE-NH2 [Example 1177] | – | 0.544 | – | 156 | 43.6 | – | 0.681 | 0.0114 | 4.23
H-Y[Aib]QGT[αMePhe(2-F)]TSD[4Pal][αMeS]I[αMeL]LD[Orn]K([AEEA-γGlu-γGlu-C18 diacid])AQ[αMe4Pal]EFI[dE][αMeY]LIEGGPSSGEPPPSGGGE-NH2 [Example 1181] | – | 0.666 | – | 203 | 48.2 | – | 0.664 | 0.0115 | 3.34
H-Y[Aib]QGT[αMePhe(2-F)]TSD[4Pal][αMeS]I[αMeL]LD[Orn]K([AEEA-γGlu-γGlu-C18 diacid])AQ[αMe4Pal]EFI[dE][αMeY]LIEGGPSSGEPPPSGSE-NH2 [Example 1179] | – | 0.58 | – | 197 | 37.9 | – | 0.652 | 0.0102 | 2.87
H-Y[Aib]QGT[αMePhe(2-F)]TSD[4Pal][αMeS]I[αMeL]LD[Orn]K([Glu-γGlu-C18 diacid])AQ[Aib][Orn]FI[dE][αMeY]LSEGGPSSGEPPPSGTE-NH2 [Example 563] | 1.01 | 11.8 | 0.132 | 1010 | 98.7 | 8.3 | – | – | –
H-Y[Aib]QGT[αMePhe(2-F)]TSD[4Pal][αMeS]I[αMeL]LD[Orn]K([γGlu-Glu-C18 diacid])AQ[Aib][Orn]FI[dE][αMeY]LSEGGPSSGEPPPSGTE-NH2 [Example 565] | 1.24 | 21.9 | 0.107 | 1770 | 204 | 10.3 | – | – | –
H-Y[Aib]QGT[αMePhe(2-F)]TSD[4Pal][αMeS]I[αMeL]LD[Orn]K([γGlu-Glu-C18 diacid])AQ[Aib][Orn]FI[dE][αMeY]LSEGGPSSGEPPPSGTEE-NH2 [Example 566] | 1.3 | 30.1 | 0.137 | 1780 | 252 | 7.18 | – | – | –
H-Y[Aib]QGT[αMePhe(2-F)]TSD[4Pal][αMeS]I[αMeL]LD[Orn]K([γGlu-γGlu-C18 diacid])AA[Aib]EFI[dE][αMeY]LIEGGPSSGAPPPSGGGE-NH2 [Example 747] | 0.229 | 0.651 | 0.00955 | 169 | 20.3 | 1.71 | – | – | –
H-Y[Aib]QGT[αMePhe(2-F)]TSD[4Pal][αMeS]I[αMeL]LD[Orn]K([γGlu-γGlu-C18 diacid])AA[Aib]EFI[dE][αMeY]LVEGGPSSGEPPPSGS-NH2 [Example 695] | 0.254 | 0.772 | 0.0136 | 164 | 19.5 | 1.93 | – | – | –
H-Y[Aib]QGT[αMePhe(2-F)]TSD[4Pal][αMeS]I[αMeL]LD[Orn]K([γGlu-γGlu-C18 diacid])AQ[Aib]NFI[dE][αMeY]LIEGGPSSGEPEPEEG-NH2 [Example 474] | 0.236 | 0.743 | 0.0125 | 166 | 10.6 | 3.88 | – | – | –
H-Y[Aib]QGT[αMePhe(2-F)]TSD[4Pal][αMeS]I[αMeL]LD[Orn]K([γGlu-γGlu-C18 diacid])AQ[Aib]NFI[dE][αMeY]LIEGGPSSGEPEPSEG-NH2 [Example 473] | 0.173 | 1.11 | 0.0101 | 311 | 11.4 | 2.72 | – | – | –
H-Y[Aib]QGT[αMePhe(2-F)]TSD[4Pal][αMeS]I[αMeL]LD[Orn]K([γGlu-γGlu-C18 diacid])AQ[Aib]NFI[dE][αMeY]LQEGGPSSGEPPPEGT-NH2 [Example 525] | 0.426 | 2.07 | 0.0351 | 460 | 20.2 | 10 | – | – | –
H-Y[Aib]QGT[αMePhe(2-F)]TSD[4Pal][αMeS]I[αMeL]LD[Orn]K([γGlu-γGlu-C18 diacid])AQ[Aib]NFI[dE][αMeY]LQEGGPSSGEPPPEGTGE-NH2 [Example 527] | 0.446 | 2.6 | 0.0386 | 580 | 26.8 | 6.99 | – | – | –
H-Y[Aib]QGT[αMePhe(2-F)]TSD[4Pal][αMeS]I[αMeL]LD[Orn]K([γGlu-γGlu-C18 diacid])AQ[Aib]QFI[dE][αMeY]LQEGGPSSGEPPPEGTGE-NH2 [Example 529] | 0.467 | 1.39 | 0.0273 | 398 | 24.5 | 6.59 | – | – | –
H-Y[Aib]QGT[αMePhe(2-F)]TSD[4Pal][αMeS]I[αMeL]LD[Orn]K([γGlu-γGlu-C18 diacid])AQ[Aib][Orn]FI[dE]YLIEGGPSSGEPPPSGTEE-NH2 [Example 535] | 0.418 | 1.16 | 0.0183 | 238 | 29.9 | 3.16 | – | – | –
H-Y[Aib]QGT[αMePhe(2-F)]TSD[4Pal][αMeS]I[αMeL]LD[Orn]K([γGlu-γGlu-C18 diacid])AQ[Aib][Orn]FI[dE]YLIEGGPSSGEPPPSGTEEE-NH2 [Example 540] | 0.686 | 1.93 | 0.0296 | 405 | 38.2 | 5.62 | – | – | –
H-Y[Aib]QGT[αMePhe(2-F)]TSD[4Pal][αMeS]I[αMeL]LD[Orn]K([γGlu-γGlu-C18 diacid])AQ[Aib][Orn]FI[dE]YLIEGGPSSGEPPPSGTGE-NH2 [Example 523] | 0.482 | 0.869 | 0.021 | 234 | 27.1 | 3.79 | – | – | –
H-Y[Aib]QGT[αMePhe(2-F)]TSD[4Pal][αMeS]I[αMeL]LD[Orn]K([γGlu-γGlu-C18 diacid])AQ[Aib][Orn]FI[dE]YLLEGGPSSGEPPPSGTE-NH2 [Example 532] | 0.577 | 1.49 | 0.0159 | 157 | 47.3 | 1.37 | – | – | –
H-Y[Aib]QGT[αMePhe(2-F)]TSD[4Pal][αMeS]I[αMeL]LD[Orn]K([γGlu-γGlu-C18 diacid])AQ[Aib][Orn]FI[dE]YLSEGGPSSGEPPPSGTE-NH2 [Example 530] | 4.91 | 63.7 | 0.874 | 1280 | 437 | 17.1 | – | – | –

Source: patent US20240270821A1, “GIP/GLP1/GCG TRI-RECEPTOR AGONISTS AND USES THEREOF” (priority 2023, published 2024)
